For series [1], the system named is OCI-AML3 (NPM1 C+). Put plainly: Viability assay (WST-1) in OCI-AML3 cell line. The settings on record: Homo sapiens, OCI-AML-3, viability percentage relative to vehicle, 24 h. Type of series: cell-based. As to the method:
(§1) Two different acute myeloid leukemia cell lines, OCI-AML3 (NPM1 C+) and MOLM13 (NPM1 C−) were obtained from the DSMZ cell repository (Braunschweig, Germany). Cell lines were expanded and cryogenically frozen upon acquisition to establish stocks in liquid nitrogen until use. Cultured cells were maintained at 37° C. in a humidified incubator in an atmosphere of 5% CO2 and passaged every 2-3 days. RPMI media (Gibco/Life Technologies; Grand Island, NY) supplemented with 10% fetal bovine serum (FBS) (Hyclone) and 1% penicillin/streptomycin was used.
(§2) The sensitivity of the compounds on OCI-AML3 (NPM1 C+) and MOLM13 (NPM1 C−) cell viability was assessed as an in-vitro acute myeloid leukemia (AML) model. Briefly, cells were seeded at a density of 2×10^4 cells/100 μL/well in 96-well plates. Cell lines were treated for 24 h with the test compound diluted in DMSO at the concentration of 5 μM or vehicle (DMSO). Then, 10 μL of WST-1 solution ((2-(4-iodophenyl)-3-(4-nitrophenyl)-5-(2,4-disulfophenyl)-2H-tetrazolium monosodium salt, Merck) were added and the cells were incubated for 4 h at 37° C. The absorbance was measured at 450 nm using an Asys UVM 340 microplate reader (Biochrom Ltd., Cambridge, UK). The background absorbance of blank wells containing only medium was subtracted from each test well. The data were reported as viability percentage relative to vehicle, obtained from two or three independent experiments performed in triplicate (Table 1).

The test system of series [2] is MOLM13 (NPM1 C−). Put plainly: Viability assay (WST-1) in MOLM13 cell line. The series is classed as cell-based. The settings on record: Homo sapiens, MOLM-13, viability percentage relative to vehicle, 24 h. As to the method: as §1, §2
On the technique in general: Formazan colour is commonly taken as a measure of viable cells.

For series [3], the system named is AML primary cells NPM1 mut. Nature of the series: Viability assay in primary CD34+ cells from AML patients, NPM1 mut. Type of series: cell-based. The settings on record: Homo sapiens, FIG. 2. The procedure:
as §2
(§3) Primary cells from AML bone marrow patients CD34+ were isolated by anti-CD34+ microbeads (Miltenyi Biotech) from bone marrow of healthy donors and AML patients. Briefly, bone marrow samples were collected from AML and healthy patient pelvic bone, and were subjected to Ficoll-Paque density gradient separation to isolate mononuclear cells. […]

In series [4] the test system is AML primary cells NPM1 WT. Put plainly: Viability assay in primary CD34+ cells from AML patients, NPM1 WT. The series is classed as cell-based. The settings on record: Homo sapiens, FIG. 2. As to the method: as §2, §3
The test system of series [5] is healthy donor bone marrow cells. Put plainly: Viability assay in CD34+ healthy donor bone marrow cells. Type of series: cell-based. The settings on record: Homo sapiens, Bone marrow cell, FIG. 2, read-out: IC50 healthy donors. As to the method: as §2, §3
Series [6] concerns AML primary cells. Nature of the series: Colony formation unit assay in primary CD34+ cells from AML patients. Type of series: cell-based. The settings on record: Homo sapiens, 336 h; methylcellulose culture, 14 days, FIG. 3; read-out: CFU-E: IC50 AML. The procedure: (§4) Sorted CD34^+ cells were plated in 24-well plates at a density of 3×10^4 cells per well in methylcellulose-based medium MethoCult GF H4434 (StemCell Technologies) containing stem cell factor (SCF), interleukin-3 (IL-3), erythropoietin (EPO) and granulocyte macrophage colony stimulating factor (GM-CSF). Test compound was added directly to the cells within the methylcellulose medium, and incubated at 37° C. in a humidified atmosphere in the presence of 5% CO2 for 14 days. Total cells from colonies formed were counted manually using an inverted microscope/phase contrast microscopy with trypan-blue. The data were presented as percentage of colonies or percentage of viable cells relative to DMSO, obtained from two or three independent experiments performed in duplicate.

Series [7] concerns healthy donor bone marrow cells. Nature of the series: Colony formation unit assay in CD34+ healthy donor bone marrow cells. The series is classed as cell-based. The settings on record: Homo sapiens, Bone marrow cell, 336 h; methylcellulose culture, 14 days, FIG. 3; read-out: CFU-E: IC50 healthy donors. As to the method: as §4
In series [8] the target is T1, NPM1 cytoplasmic form (NPM1 C+) (Homo sapiens, UniProt P06748).
T1 construct: endogenous in cells; host or cells: OCI-AML3 (DSMZ)
T1 sequence (P06748 with tags, fused parts or gaps limits assumed): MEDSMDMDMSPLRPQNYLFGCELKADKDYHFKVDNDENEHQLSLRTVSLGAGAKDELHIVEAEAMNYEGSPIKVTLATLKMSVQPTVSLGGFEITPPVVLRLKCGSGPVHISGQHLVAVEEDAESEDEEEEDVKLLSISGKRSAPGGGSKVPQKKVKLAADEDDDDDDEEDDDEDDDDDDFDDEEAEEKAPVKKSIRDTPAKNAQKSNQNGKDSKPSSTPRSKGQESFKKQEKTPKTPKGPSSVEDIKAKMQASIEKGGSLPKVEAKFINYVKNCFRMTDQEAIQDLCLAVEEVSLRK
Put plainly: Effect on NPM1 cytoplasmic form (NPM1 C+) by confocal microscopy in OCI-AML3. Type of series: cell-based. The settings on record: OCI-AML3, 10 µM, 48 h, FIG. 4. The procedure:
OCI-AML3 (NPM1 C+) cells were plated onto glass coverslips or Greiner Bio-One μClear black 96-well plate (7.5×10^4 cells per well) and treated with test compound for 48 h. Then, cells were fixed with 4% paraformaldehyde for 15 min, permeabilized with 0.1% Triton X-100 for 30 min, and blocked in 5% bovine serum albumin during 1 h at rt. Incubation with primary antibodies against NPM1 (7H10B9, NOVUS Biologicals) was carried out overnight at 4° C. Alexa-488 conjugated anti-mouse or anti-rabbit antibodies (Molecular Probes) were used for detection of the reported proteins by confocal microscopy. Nuclei were counterstained with 4′,6-diamidino-2-phenylindole (DAPI) bath. A total of 35 fields per well were acquired with a ×40 magnification lens for those samples run in the Opera HCS system (Perkin Elmer). Images were segmented using the DAPI staining and the coefficient of variation of NPM1 intensity per nucleus/cytoplasm was calculated using Definiens Developer XD software.

The nature of series [9]: Pharmacokinetic study in mice. Type of series: in vivo, mouse. Details: in-vivo diffusion: dose or concentration left out as unconfirmed. The settings on record: FIG. 5A. The procedure: Pharmacokinetic studies for compound Ic were performed. […] The area of the molecular peak allows to calculate the concentration of the compound present in mice serum at each time.
Series [10] relates to OCI-AML3-ffLuc-GFP cells. Put plainly: AML xenograft mouse model (OCI-AML3-ffLuc-GFP cells in NSG mice). The series is classed as in vivo. The settings on record: ip administration for 3 weeks, NSG mice with 1 million OCI-AML3-GFP-Luc cells, versus vehicle, FIG. 5B. As to the method:
An AML xenograft mouse model was used for the study of in vivo efficacy. Female 6-8 week-old NOD.Cg-Prkdcscid II2rgtm1WjI/SzJ (NSG) mice (Vivotecnia, Madrid, Spain) were inoculated intravenously by tail vein injection with OCI-AML3-ffLuc-GFP cells (1×10^6). The animal experiment was performed according to the guidelines of the Institutional Animal Care and Use Committees of the Comunidad de Madrid, Spain, under approved protocol (PROEX 023/17). Four days later, mice were randomized into three groups of 10 animals: the first group received intraperitoneal injections of vehicle (0.9% saline solution) five days a week; the second group received 25 mg/kg of compound Ic intraperitoneally five times a week for four weeks; the third group received intraperitoneal injections of 50 mg/kg of compound Ic five times weekly for three weeks. Mice were monitored for tumor burden, distribution and engraftment every week by IVIS whole-body bioluminescence imaging. Bioimaging of […] burden in vivo was performed by IVIS Imaging system (Caliper Life Science). Before performing, Luciferin (D-luciferin monosodium salt, Thermofisher) was prepared in PBS and 150 mg/kg of Luciferin was injected i.p.; after 10 min, luminescence signal can be detected. The signal data was analyzed by the Living Image 4.2 (Caliper Life Science) software.

Series [11] deals with OCI-AML3 (NPM1 C+). Nature of the series: Viability assay (WST-1) in OCI-AML3 cell line. The series is classed as cell-based. The settings on record: Homo sapiens, OCI-AML-3; dose-response curve, FIG. 1.
Series [12] deals with MOLM13 (NPM1 C−). Nature of the series: Viability assay (WST-1) in MOLM13 cell line. The series is classed as cell-based. The settings on record: Homo sapiens, MOLM-13; dose-response curve, FIG. 1.

Consider eleven molecules from patent US20240400515A1, “NPM1-DEPENDING LEUKEMIA AGENTS” (UNIVERSIDAD COMPLUTENSE DE MADRID, priority 2021, published 2024).

The structures appear in SMILES notation. Entries after “also recorded” stand apart in the source; their conditions may differ.

For `COc1ccc([C@H]2Cc3[nH]c4ccccc4c3[C@@H](CCNCC3CC3)[C@@H]2N)cc1` [Ic, (2R,3R,4R)-4-{2-[(Cyclopropylmethyl)amino]ethyl}-2-(4-methoxyphenyl)-2,3,4,9-tetrahydro-1H-carbazol-3-amine], the viability (commonly a read-out of living cells in per cent, often relative to untreated cells) at 5 µM was found to be 40 ± 2% in series [1] and 55 ± 6% in series [2]. Also, the IC50 (in general, the concentration needed to halve the response being measured) is 1.24 µM in series [3]; 5.03 µM in series [4]; 7.89 µM in [5]; 1.26 µM in series [6]; 4.6 µM in series [7]; 7.59 µM in series [11]. This molecule also gave a half-maximal inhibitory concentration (IC50) in series [12] of 41.8 µM. Besides, the “Effect on NPM1 / NPM1C+ (confocal microscopy)” value in series [8] is “inhibition of the NPM1 cytoplasmic form (NPM1 C+) of the protein; also recorded: deplete NPM1 in OCI-AML3, especially NPM1C+ form”. Also, in series [9] (25 mg/kg intraperitoneal, first 6 h post-injection), the “levels in mouse peripheral blood” value was 0.2 to 0.6 µg/mL. In addition, in [9] (plasma concentration 30 minutes to 6 hours after ip administration), the in-vivo diffusion result is listed as “correct in-vivo diffusion was observed”. The “AML cell (tumour) infiltration” value in series [10] was “Tumour infiltration decrease was observed”.

As for `N[C@@H]1[C@@H](c2ccc(F)cc2)Cc2[nH]c3ccccc3c2[C@H]1CCNCC1CC1` [Io, (2R,3R,4R)-4-{2-[(Cyclopropylmethyl)amino]ethyl}-2-(4-fluorophenyl)-2,3,4,9-tetrahydro-1H-carbazol-3-amine], the viability at 5 µM in [1] was 16 ± 1%; in series [2] it was 13 ± 5%.

Turning to `N[C@H]1[C@H](c2ccc(F)cc2)Cc2[nH]c3ccccc3c2[C@@H]1CCNCC1CC1` [Ip, (2S,3S,4S)-4-{2-[(Cyclopropylmethyl)amino]ethyl}-2-(4-fluorophenyl)-2,3,4,9-tetrahydro-1H-carbazol-3-amine], the viability at 5 µM worked out at 7 ± 3% in [1] and 7 ± 2% in [2].

For the molecule `N[C@@H]1[C@@H](c2cccc(F)c2)Cc2[nH]c3ccccc3c2[C@H]1CCNCC1CC1` [Iq, (2R,3R,4R)-4-{2-[(Cyclopropylmethyl)amino]ethyl}-2-(3-fluorophenyl)-2,3,4,9-tetrahydro-1H-carbazol-3-amine], the viability at 5 µM in series [1] amounted to 18 ± 6%; in series [2], 34 ± 4%.

On to `CN[C@@H]1[C@@H](c2ccc(OC)cc2)Cc2[nH]c3ccccc3c2[C@H]1CCNCC1CC1` [Ir, (2R,3R,4R)-4-{2-[(Cyclopropylmethyl)amino]ethyl}-2-(4-methoxyphenyl)-N-methyl-2,3,4,9-tetrahydro-1H-carbazol-3-amine], for which the viability at 5 µM amounted to 11 ± 3% in series [1] and 15% in series [2].

Regarding `CN[C@H]1[C@H](c2ccc(OC)cc2)Cc2[nH]c3ccccc3c2[C@@H]1CCNCC1CC1` [Is, (2S,3S,4S)-4-{2-[(Cyclopropylmethyl)amino]ethyl}-2-(4-methoxyphenyl)-N-methyl-2,3,4,9-tetrahydro-1H-carbazol-3-amine], the viability at 5 µM in [1] was 1%; in series [2], 6 ± 1%.

Take `Cc1ccc([C@H]2Cc3[nH]c4ccccc4c3[C@@H](CCNCC3CC(F)(F)C3)[C@@H]2N)cc1` [Iu, (2R,3R,4R)-4-(2-{[(3,3-Difluorocyclobutyl)methyl]amino}ethyl)-2-(4-methylphenyl)-2,3,4,9-tetrahydro-1H-carbazol-3-amine]: the results for the viability at 5 µM in series [1] and in series [2] were 4 ± 3% and 6 ± 1%, respectively.

On to `CNCC[C@@H]1c2c([nH]c3ccccc23)C[C@H](c2ccc(OC)cc2)[C@H]1N` [Iw, (2R,3R,4R)-2-(4-Methoxyphenyl)-4-[2-(methylamino)ethyl]-2,3,4,9-tetrahydro-1H-carbazol-3-amine], for which the viability at 5 µM was 27 ± 2% in [1] and 40 ± 15% in [2].

For `Cc1ccc([C@H]2Cc3[nH]c4ccccc4c3[C@@H](CCNCC(C)C)[C@@H]2N)cc1` [Ix, (2R,3R,4R)-2-(4-Methylphenyl)-4-{2-[(2-methylpropyl)amino]ethyl}-2,3,4,9-tetrahydro-1H-carbazol-3-amine], the viability at 5 µM in [1] and in series [2] was 0% throughout.

Regarding `Cc1ccc([C@H]2Cc3[nH]c4ccccc4c3[C@@H](CCNC(C)C)[C@@H]2N)cc1` [Iy, (2R,3R,4R)-2-(4-Methylphenyl)-4-{2-[(propan-2-yl)amino]ethyl}-2,3,4,9-tetrahydro-1H-carbazol-3-amine], the viability at 5 µM turned out to be 8% in series [1] and 4 ± 4% in [2].

Turning to `CCNCC[C@@H]1c2c([nH]c3ccccc23)C[C@H](c2ccc(C)cc2)[C@H]1N` [Iz, (2R,3R,4R)-4-[2-(Ethylamino)ethyl]-2-(4-methylphenyl)-2,3,4,9-tetrahydro-1H-carbazol-3-amine], the viability at 5 µM was 8 ± 4% in series [1] and 8 ± 3% in [2].
